Measurements as given in PMC4700268 (Frontiers in Pharmacology, 2016).
Values joined by “and” are separate entries in the source; they are usually repeats but may differ in a detail not shown here. Identical values can stand only once.

Tests used:
[1] = Urinary excretion of ETV and estimated concentration in final urine; assay type: in vivo; settings: 1 mg dose, 24 h-urinary volume of 1 L
hCNT3 [2] = molecular target: T1, hCNT3 (Homo sapiens, UniProt Q9HAS3); experiment: [3H]ETV uptake in hCNT3 transfected cells; settings: 5 min, 37°C
T1 sequence (Q9HAS3 1-691): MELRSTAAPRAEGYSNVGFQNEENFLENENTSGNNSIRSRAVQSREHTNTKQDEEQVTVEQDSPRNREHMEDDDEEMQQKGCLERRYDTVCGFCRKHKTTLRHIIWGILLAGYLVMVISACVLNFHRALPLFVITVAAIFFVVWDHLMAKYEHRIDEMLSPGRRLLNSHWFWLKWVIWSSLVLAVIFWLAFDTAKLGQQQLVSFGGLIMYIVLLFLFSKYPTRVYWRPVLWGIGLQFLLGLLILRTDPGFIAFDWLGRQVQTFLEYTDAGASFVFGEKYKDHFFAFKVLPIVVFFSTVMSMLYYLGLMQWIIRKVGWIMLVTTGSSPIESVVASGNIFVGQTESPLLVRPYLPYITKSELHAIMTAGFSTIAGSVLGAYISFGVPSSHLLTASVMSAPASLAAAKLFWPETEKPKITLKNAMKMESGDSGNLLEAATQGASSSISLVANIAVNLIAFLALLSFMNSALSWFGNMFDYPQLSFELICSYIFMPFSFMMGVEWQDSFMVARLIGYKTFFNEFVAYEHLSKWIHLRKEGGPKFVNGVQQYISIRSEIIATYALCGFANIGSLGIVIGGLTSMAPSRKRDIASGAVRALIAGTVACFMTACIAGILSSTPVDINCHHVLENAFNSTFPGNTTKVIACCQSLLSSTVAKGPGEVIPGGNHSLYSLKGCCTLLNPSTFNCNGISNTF

hCNT3 [3] = molecular target: T1, hCNT3; experiment: Inhibition of [3H]uridine uptake in hCNT3 transfected MDCK II cells; assay type: in vitro ADME; design: host or cells: MDCK II cells, transient transfection; settings: 1 μM [3H]uridine, MDCK II cells transiently transfected with hCNT3, 2 min, 37°C; read-out: IC50, inhibition of hCNT3 mediated transport
Procedure: (§1) Inhibitory transport assays were carried out in 24-well plates as described previously ([Mandikova et al., 2013]). Transport assays in HeLa cells transiently transfected with the hOAT1 expression construct were performed 48 h after transfection. Transport assays in MDCK II cells transiently transfected with hOCT2, hCNT2 or hCNT3 were performed 24 h after transfection. The cultivation medium was removed and the cells were washed with transport solution and preincubated for 10 min at 37°C. The standard radiolabeled substrate or tested radioactive antiviral substance dissolved in transport solution was added to the cells and incubated for 2 min. [^3H]PAH (1 μM) was used as a prototypical substrate for OATs, [^3H]MPP^+ (1 μM) for OCTs and [^3H]uridine (1 μM) for CNTs. […] After the designated time period, the incubation was stopped by washing the cells twice with ice-cold solution containing 137 mM NaCl and 10 mM HEPES, pH 7.4. The cells were disintegrated with 0.1 mL of Triton X 0.5% in 100 mM NaOH for 1 h.
IC50 values were calculated using non-linear regression analysis using GraphPad Prism software (version 6).

[4] = test system: MDCK II cells transiently transfected with hCNT2; experiment: MTS cell viability assay in hCNT2 transfected MDCK II cells; assay type: cell-based, canine; settings: 24 h, 250–1000 μM, hCNT2 vs empty vector MDCK II cells
Procedure: The controls were prepared simultaneously.

hOAT1 = molecular target: T2, hOAT1 (Homo sapiens, UniProt Q4U2R8); experiment: Inhibition of [3H]PAH uptake in hOAT1 transfected HeLa cells; assay type: in vitro ADME; design: host or cells: HeLa cells, transient transfection; settings: 1 μM [3H]PAH, HeLa cells transiently transfected with hOAT1, 2 min, 37°C; read-out: IC50, inhibition of hOAT1 mediated transport
T2 sequence (Q4U2R8 1-563): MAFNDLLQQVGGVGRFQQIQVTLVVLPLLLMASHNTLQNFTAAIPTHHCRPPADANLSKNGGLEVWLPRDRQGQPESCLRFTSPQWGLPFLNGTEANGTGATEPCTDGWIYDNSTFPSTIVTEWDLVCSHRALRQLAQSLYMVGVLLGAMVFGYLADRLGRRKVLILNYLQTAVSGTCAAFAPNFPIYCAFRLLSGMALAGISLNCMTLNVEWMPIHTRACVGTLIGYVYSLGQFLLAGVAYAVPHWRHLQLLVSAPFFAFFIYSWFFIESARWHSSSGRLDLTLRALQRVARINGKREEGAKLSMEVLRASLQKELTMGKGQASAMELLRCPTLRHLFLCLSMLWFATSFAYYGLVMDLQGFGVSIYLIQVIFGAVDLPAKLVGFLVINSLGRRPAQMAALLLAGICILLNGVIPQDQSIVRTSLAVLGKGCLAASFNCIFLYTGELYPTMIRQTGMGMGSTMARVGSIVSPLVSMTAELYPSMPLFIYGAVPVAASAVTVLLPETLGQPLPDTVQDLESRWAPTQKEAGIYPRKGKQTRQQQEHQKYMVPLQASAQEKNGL
Procedure: as §1, with “min.” for “min. [^3H]PAH (1 μM) was used as a prototypical substrate for OATs, [^3H]MPP^+ (1 μM) for OCTs and [^3H]uridine (1 μM) for CNTs.”, “h. […] IC50 values were calculated using non-linear regression analysis using GraphPad Prism software (version 6).” for “h.”

Estimated concentration in the final urine [1]: approximately 700 μg/L and ~2.5 μM
Vmax of [3H]ETV uptake by hCNT3 (hCNT3 [2]): 45.84 nmol/mg protein/5 min
IC50 (hCNT3 [3]): 278 µM
IC50 (hOAT1): 175 µM
Structure (SMILES): C=C1[C@H](CO)[C@@H](O)C[C@@H]1n1cnc2c(=O)[nH]c(N)nc21 [ETV, Entecavir]
Effect of hCNT2 expression on cytotoxicity [4]: did not prove any significant increase in cytotoxicity
